Measured values: article PMC5201303, “Comparison of Enzymatic Traits between Native and Recombinant Glycine Sarcosine N-Methyltransferase from Methanohalophilus portucalensis FDF1^T” (PLoS ONE, 2016)

Assays:
[1] = biological target: T1, native GSMT (glycine sarcosine N-methyltransferase) (Methanohalophilus portucalensis, UniProt F6KV61); experiment: radiometric [methyl-3H]-SAM methyl transfer, charcoal separation; type: biochemical; conditions: read-out: I50
T1 construct: monomer and dimer fractions pooled
T1 sequence (F6KV61 1-263): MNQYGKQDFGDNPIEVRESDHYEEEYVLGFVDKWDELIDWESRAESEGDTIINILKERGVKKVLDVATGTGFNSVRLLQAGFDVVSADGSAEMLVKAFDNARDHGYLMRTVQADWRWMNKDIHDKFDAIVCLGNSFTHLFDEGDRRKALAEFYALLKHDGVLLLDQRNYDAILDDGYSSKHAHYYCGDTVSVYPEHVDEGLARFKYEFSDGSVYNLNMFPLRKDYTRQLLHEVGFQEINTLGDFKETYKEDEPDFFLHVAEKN

[2] = biological target: T1, native GSMT (glycine sarcosine N-methyltransferase); experiment: as above; type: biochemical

IC50 [1] [µM] | remaining activity at 1 M [2] [%] | SMILES
50 |  | Nc1ncnc2c1ncn2[C@@H]1O[C@H](CSCC[C@H](N)C(=O)O)[C@@H](O)[C@H]1O [SAH, S-adenosylhomocysteine]
 | 43 | C[N+](C)(C)CC(=O)[O-] [betaine]
